Experiments:
[1] = test system: Human immunodeficiency virus 1; assay: Inhibitory activity against HIV-1 IIIB to achieve 50% protection of MT-2 cells; type: functional, organism-based; conditions: Human immunodeficiency virus 1, MT2
MT2 = assay: Cytotoxic concentration required to reduce the viability of mock-infected MT-2 cells by 50%; type: functional; conditions: Homo sapiens

IC50 [1] [µM]	Structure (SMILES)	CC50 (MT2) [µM]
> 100	C=C[C@@]1(CO)C=C[C@H](n2cc(C)c(=O)[nH]c2=O)O1	> 100
> 100	Cc1cn([C@H]2C=C[C@@](C)(CO)O2)c(=O)[nH]c1=O	> 100
0.2	C#C[C@@]1(CO)C=C[C@H](n2cc(C)c(=O)[nH]c2=O)O1 [CENSAVUDINE]	> 100
2.8	Cc1cn([C@H]2C=C[C@@H](CO)O2)c(=O)[nH]c1=O [STAVUDINE]	100
